# Reference: ChEMBL document CHEMBL3137667, “[Drug-induced liver injury; fourteenth updated edition of the bibliographic database of liver injuries and related drugs]” (Gastroenterol Clin Biol, 2004)
# Tests used:
# [1] = Highest frequency of acute liver toxicity observed during clinical trials, expressed as a percentage. [column '% AIGUE' in source]; conditions: human
# [2] = human
# [3] = human; remark: listed apart in the source
# [4] = Times to onset, minimal and maximal, observed in the indexed observations. [column 'DELAI' in source]; conditions: human
# [5] = human; remark: listed apart in the source
# [6] = human, serum
# [7] = human; remark: listed apart in the source
# [8] = human; remark: listed apart in the source
# [9] = Highest frequency of moderate liver toxicity observed during clinical trials, expressed as a percentage. [column '% BIOL' in source]; conditions: human
# [10] = human; remark: listed apart in the source
# [11] = human; remark: listed apart in the source
# [12] = human; remark: listed apart in the source
# [13] = human; remark: listed apart in the source
# [14] = human, serum; remark: listed apart in the source
# [15] = human, serum, 4383 h
# 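Throughout, for Hepatotoxicity (association with vascular disease): count of indexed literature references reporting vascular liver injury in humans, e.g. peliosis hepatitis, hepatic veno-occlusive disease or Budd-Chiari syndrome.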
# 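Throughout, for Hepatotoxicity (benign tumour): value is a count of indexed literature references citing a benign tumour confirmed by histopathology.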
# 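Throughout, for Hepatotoxicity (choleostasis): human cholestatic liver injury, shown by histopathology or by peak ALT or AST elevation over alkaline phosphatase ratio below 2, value counts indexed literature reports.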
# 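Throughout, for Hepatotoxicity (chronic liver disease): chronic liver injury confirmed by histopathology or persistently raised serum aminotransferase activity beyond 6 months, value given as the count of indexed literature references.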
# 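Throughout, for Hepatotoxicity (cirrhosis): value is a count of indexed literature references reporting cirrhosis confirmed by histopathology.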
# 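Throughout, for Hepatotoxicity (cytolytic): human cytolytic liver injury, shown by histopathology or by a ratio above 5 of peak ALT or AST elevation to alkaline phosphatase elevation, value counts indexed references.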
# 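Throughout, for Hepatotoxicity (granulomatous hepatitis): value is a count of indexed literature references reporting granulomatous liver disease confirmed by histopathology.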
# 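Throughout, for Hepatotoxicity (malignant tumour): malignant tumour confirmed by histopathology, value gives the count of indexed literature references reporting it.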
# 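Throughout, for Hepatotoxicity (severe hepatitis): human clinical data: severe hepatitis, meaning potentially life-threatening liver failure or clinically observed cases, the value counts how many indexed literature references report it.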
# 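Throughout, for Hepatotoxicity (steatosis): steatosis confirmed by histopathology, value is the count of indexed references.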
Compound,Hepatotoxicity (acute) [1],Hepatotoxicity (benign tumour) [2],Hepatotoxicity (cytolytic) [3],Hepatotoxicity (time to onset) [4],Hepatotoxicity (granulomatous hepatitis) [5],Hepatotoxicity (moderate) [6],Hepatotoxicity (cirrhosis) [7],Hepatotoxicity (malignant tumour) [8],Hepatotoxicity (moderate) [9],Hepatotoxicity (steatosis) [10],Hepatotoxicity (association with vascular disease) [11],Hepatotoxicity (choleostasis) [12],Hepatotoxicity (severe hepatitis) [13],Hepatotoxicity (acute) [14],Hepatotoxicity (chronic liver disease) [15]
CCCCC(=O)N(Cc1ccc(-c2ccccc2-c2nnn[nH]2)cc1)[C@H](C(=O)O)C(C)C,0%,0,1,1 month - 4.5 months,0,2,0,0,0%,0,0,1,1,3,0
CCN(CC)C(=O)C1(c2ccccc2)CC1CN (stereo not given),0%,0,1,6 months,0,0,0,0,0%,0,0,0,0,1,0
CC(=O)[C@H]1CC[C@H]2[C@@H]3CC[C@H]4C[C@H](O)CC[C@]4(C)[C@H]3C(=O)C[C@]12C.C[C@]12CC[C@@H](O)C[C@@H]1CC[C@H]1[C@@H]3CC[C@H](C(=O)CO)[C@@]3(C)CC(=O)[C@@H]12,0%,0,0,3 days - 5 days,0,1,0,0,15%,0,0,0,0,0,0
CCCCN/C(=C1/C=C(Cl)C=CC1=O)c1ccccc1Cl,0%,0,0,1 month,0,1,0,0,54.5%,0,0,0,0,1,0
CC1(C)S[C@@H]2[C@H](NC(=O)[C@H](C(=O)O)c3ccsc3)C(=O)N2[C@H]1C(=O)O.O=C(O)[C@H]1/C(=C/CO)O[C@@H]2CC(=O)N21,0%,0,0,1 day - 6 weeks,0,54,0,0,33%,0,0,2,1,2,0
C=CC1=C(C(=O)O)N2C(=O)[C@@H](NC(=O)/C(=N\O)c3csc(N)n3)[C@H]2SC1,0%,0,0,2 days,1,43,0,0,28.6%,0,0,0,0,1,0
CC(C)=CCN1CC[C@]2(C)c3cc(O)ccc3C[C@H]1[C@H]2C [(+)-PENTAZOCINE],0%,0,0,< 3 months,0,0,0,0,0%,0,0,0,0,2,0
COc1ccc2c(c1)c(CC(=O)OCC(=O)O)c(C)n2C(=O)c1ccc(Cl)cc1 [ACEMETACIN],0%,0,0,12 weeks,0,0,0,0,0%,0,0,1,0,1,0
CC(=O)Nc1nnc(S(N)(=O)=O)s1 [ACETAZOLAMIDE],0%,0,0,1 month,0,0,0,0,0%,1,0,1,1,1,0
C[S+](CC[C@H](N)C(=O)[O-])C[C@H]1O[C@@H](n2cnc3c(N)ncnc32)[C@H](O)[C@@H]1O (stereo not given in full) [ADEMETIONINE],0%,0,1,3 days,0,2,0,0,5%,0,0,0,0,1,0
COc1cc2nc(N(C)CCCNC(=O)C3CCCO3)nc(N)c2cc1OC (stereo not given) [ALFUZOSIN],0%,0,1,9 months,0,0,0,0,0%,0,0,0,0,1,0
C=CCNc1nc(NCC=C)nc(N2CCN(C(c3ccc(F)cc3)c3ccc(F)cc3)CC2)n1 [ALMITRINE],0%,0,1,1 week,0,0,0,0,0%,0,0,0,0,1,0
Cc1cn([C@H]2C[C@H](F)[C@@H](CO)O2)c(=O)[nH]c1=O [ALOVUDINE],3.3%,0,0,< 3 months,0,0,0,0,0%,0,0,0,1,1,0
N=C(N)NC(=O)c1nc(Cl)c(N)nc1N [AMILORIDE],0%,0,0,2 weeks - 6 months,0,2,0,0,1.1%,0,0,0,0,0,0
